# In PubChem BioAssay (NCI):
#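 48-hour exposure; five concentrations; linearly interpolated endpoints. GI50 marks 50% less growth. TGI: total growth inhibition.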
# Columns and labels:
# Assay in all cases: NCI anticancer screen, dose series, 48 h
# 786-0 renal = system: 786-0 renal
# A498 renal = system: A498 renal
# A549 NSCLC = system: A549 NSCLC
# ACHN renal = system: ACHN renal
# BT-549 breast = system: BT-549 breast
# CAKI-1 renal = system: CAKI-1 renal
# COLO 205 colon = system: COLO 205 colon
# DU-145 prostate = system: DU-145 prostate
# EKVX NSCLC = system: EKVX NSCLC
# HCC-2998 colon = system: HCC-2998 colon
# HCT-116 colon = system: HCT-116 colon
# HCT-15 colon = system: HCT-15 colon
# HOP-62 NSCLC = system: HOP-62 NSCLC
# HOP-92 NSCLC = system: HOP-92 NSCLC
# HS 578T breast = system: HS 578T breast
# HT29 colon = system: HT29 colon
# IGROV1 ovarian = system: IGROV1 ovarian
# K-562 leukemia = system: K-562 leukemia
# KM12 colon = system: KM12 colon
# LOX IMVI melanoma = system: LOX IMVI melanoma
# M14 melanoma = system: M14 melanoma
# MCF7 breast = system: MCF7 breast
# MDA-MB-231 breast = system: MDA-MB-231 breast
# MDA-MB-435 = system: MDA-MB-435
# MOLT-4 leukemia = system: MOLT-4 leukemia
# NCI-H226 lung = system: NCI-H226 lung
# NCI-H23 lung = system: NCI-H23 lung
# NCI-H460 lung = system: NCI-H460 lung
# NCI-H522 lung = system: NCI-H522 lung
# NCI/ADR-RES ovarian = system: NCI/ADR-RES ovarian
# OVCAR-3 ovarian = system: OVCAR-3 ovarian
# OVCAR-4 ovarian = system: OVCAR-4 ovarian
# OVCAR-5 ovarian = system: OVCAR-5 ovarian
# OVCAR-8 ovarian = system: OVCAR-8 ovarian
# PC-3 prostate = system: PC-3 prostate
# RPMI-8226 leukemia = system: RPMI-8226 leukemia
# RXF 393 renal = system: RXF 393 renal
# SF-268 CNS = system: SF-268 CNS
# SF-295 CNS = system: SF-295 CNS
# SF-539 CNS = system: SF-539 CNS
# SK-MEL-2 melanoma = system: SK-MEL-2 melanoma
# SK-MEL-28 melanoma = system: SK-MEL-28 melanoma
# SK-MEL-5 melanoma = system: SK-MEL-5 melanoma
# SK-OV-3 ovarian = system: SK-OV-3 ovarian
# SN12C renal = system: SN12C renal
# SNB-19 CNS = system: SNB-19 CNS
# SNB-75 CNS = system: SNB-75 CNS
# SR leukemia = system: SR leukemia
# SW-620 colon = system: SW-620 colon
# T-47D breast = system: T-47D breast
# TK-10 renal = system: TK-10 renal
# U251 CNS = system: U251 CNS
# UACC-257 melanoma = system: UACC-257 melanoma
# UACC-62 melanoma = system: UACC-62 melanoma
# UO-31 renal = system: UO-31 renal
smiles,measurement,setting,value
COc1c(C(=O)/C=C/c2ccccc2)c(O)cc2occc12,GI50,786-0 renal,16.2 µM
same,TGI,786-0 renal,31.8 µM
same,GI50,A498 renal,7.97 µM
same,TGI,A498 renal,21.8 µM
same,GI50,A549 NSCLC,8.62 µM
same,TGI,A549 NSCLC,29 µM
same,GI50,ACHN renal,4.51 µM
same,TGI,ACHN renal,19.9 µM
same,GI50,BT-549 breast,7.72 µM
same,TGI,BT-549 breast,27.8 µM
same,GI50,CAKI-1 renal,8.07 µM
same,TGI,CAKI-1 renal,29.9 µM
same,GI50,COLO 205 colon,15.7 µM
same,TGI,COLO 205 colon,29.9 µM
same,GI50,DU-145 prostate,3.81 µM
same,TGI,DU-145 prostate,13.2 µM
same,GI50,EKVX NSCLC,12.5 µM
same,TGI,EKVX NSCLC,25.6 µM
same,GI50,HCC-2998 colon,3.76 µM
same,TGI,HCC-2998 colon,14.3 µM
same,GI50,HCT-116 colon,3.72 µM
same,TGI,HCT-116 colon,12.5 µM
same,GI50,HCT-15 colon,5.25 µM
same,TGI,HCT-15 colon,22.7 µM
same,GI50,HOP-62 NSCLC,11.3 µM
same,TGI,HOP-62 NSCLC,25.2 µM
same,GI50,HOP-92 NSCLC,1.64 µM
same,TGI,HOP-92 NSCLC,7.09 µM
same,GI50,HS 578T breast,2.76 µM
same,TGI,HS 578T breast,8.36 µM
same,GI50,HT29 colon,6.34 µM
same,TGI,HT29 colon,35.6 µM
same,GI50,IGROV1 ovarian,3.51 µM
same,TGI,IGROV1 ovarian,11.4 µM
same,GI50,K-562 leukemia,4.42 µM
same,TGI,K-562 leukemia,> 100 µM
same,GI50,KM12 colon,3.71 µM
same,TGI,KM12 colon,13.3 µM
same,GI50,LOX IMVI melanoma,1.69 µM
same,TGI,LOX IMVI melanoma,3.31 µM
same,GI50,M14 melanoma,8.89 µM
same,TGI,M14 melanoma,25.7 µM
same,GI50,MCF7 breast,3.52 µM
same,TGI,MCF7 breast,17.2 µM
same,GI50,MDA-MB-231 breast,4.38 µM
same,TGI,MDA-MB-231 breast,17.5 µM
same,GI50,MDA-MB-435,3.21 µM
same,TGI,MDA-MB-435,13.2 µM
same,GI50,MOLT-4 leukemia,3.36 µM
same,TGI,MOLT-4 leukemia,> 100 µM
same,GI50,NCI-H226 lung,6.03 µM
same,TGI,NCI-H226 lung,20.8 µM
same,GI50,NCI-H23 lung,6.12 µM
same,TGI,NCI-H23 lung,20.8 µM
same,GI50,NCI-H460 lung,3.02 µM
same,TGI,NCI-H460 lung,8.92 µM
same,GI50,NCI-H522 lung,4.29 µM
same,TGI,NCI-H522 lung,15.7 µM
same,GI50,NCI/ADR-RES ovarian,2.42 µM
same,TGI,NCI/ADR-RES ovarian,6.32 µM
same,GI50,OVCAR-3 ovarian,3.76 µM
same,TGI,OVCAR-3 ovarian,11.3 µM
same,GI50,OVCAR-4 ovarian,5.4 µM
same,TGI,OVCAR-4 ovarian,26.6 µM
same,GI50,OVCAR-5 ovarian,5.67 µM
same,TGI,OVCAR-5 ovarian,19.8 µM
same,GI50,OVCAR-8 ovarian,3.62 µM
same,TGI,OVCAR-8 ovarian,12.5 µM
same,GI50,PC-3 prostate,7.01 µM
same,TGI,PC-3 prostate,37.9 µM
same,GI50,RPMI-8226 leukemia,3.15 µM
same,TGI,RPMI-8226 leukemia,9.42 µM
same,GI50,RXF 393 renal,3.56 µM
same,TGI,RXF 393 renal,15.6 µM
same,GI50,SF-268 CNS,4.05 µM
same,TGI,SF-268 CNS,13.7 µM
same,GI50,SF-295 CNS,7.83 µM
same,TGI,SF-295 CNS,21.4 µM
same,GI50,SF-539 CNS,3.22 µM
same,TGI,SF-539 CNS,13.5 µM
same,GI50,SK-MEL-2 melanoma,12.4 µM
same,TGI,SK-MEL-2 melanoma,25.2 µM
same,GI50,SK-MEL-28 melanoma,7.03 µM
same,TGI,SK-MEL-28 melanoma,20.7 µM
same,GI50,SK-MEL-5 melanoma,3.87 µM
same,TGI,SK-MEL-5 melanoma,16.3 µM
same,GI50,SK-OV-3 ovarian,14.1 µM
same,TGI,SK-OV-3 ovarian,36.4 µM
same,GI50,SN12C renal,4.48 µM
same,TGI,SN12C renal,15.8 µM
same,GI50,SNB-19 CNS,7.33 µM
same,TGI,SNB-19 CNS,20.4 µM
same,GI50,SNB-75 CNS,2.42 µM
same,TGI,SNB-75 CNS,15.1 µM
same,GI50,SR leukemia,3.27 µM
same,TGI,SR leukemia,22.2 µM
same,GI50,SW-620 colon,3.52 µM
same,TGI,SW-620 colon,11.7 µM
same,GI50,T-47D breast,10.5 µM
same,TGI,T-47D breast,32.4 µM
same,GI50,TK-10 renal,11.2 µM
same,TGI,TK-10 renal,24.8 µM
same,GI50,U251 CNS,4.39 µM
same,TGI,U251 CNS,16.1 µM
same,GI50,UACC-257 melanoma,7.01 µM
same,TGI,UACC-257 melanoma,19.7 µM
same,GI50,UACC-62 melanoma,4.15 µM
same,TGI,UACC-62 melanoma,15.1 µM
same,GI50,UO-31 renal,3.14 µM
same,TGI,UO-31 renal,11.8 µM
